How the values were obtained:
KRas G12C = molecular target: T1, KRas G12C (Homo sapiens, UniProt P01116, G12C); assay: KRas binding assay, TR-FRET displacement of Cy5 labelled tracer; details: 60-minute incubation at room temperature, 1% DMSO, pH 7.5
T1 construct: Biotinylated KRas (corresponding to amino acids 1-169, produced at Accelegan Inc.); biotin (biotinylated); purchased Accelegan Inc
Procedure, shortened: (§1)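 Truncated KRas (1-169), biotinylated, Tb-streptavidin donor; one-hour room-temperature incubation; IC50 by four-parameter curve fitting.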

KRas G12S = molecular target: T2, KRas G12S (Homo sapiens, UniProt P01116, G12S); assay: as above; details: 60-minute incubation at room temperature, 1% DMSO, pH 7.5
T2 construct: Biotinylated KRas (corresponding to amino acids 1-169, produced at Accelegan Inc.); biotin (biotinylated); purchased Accelegan Inc
T2 sequence (P01116 1-169 isoform P01116-2 G12S): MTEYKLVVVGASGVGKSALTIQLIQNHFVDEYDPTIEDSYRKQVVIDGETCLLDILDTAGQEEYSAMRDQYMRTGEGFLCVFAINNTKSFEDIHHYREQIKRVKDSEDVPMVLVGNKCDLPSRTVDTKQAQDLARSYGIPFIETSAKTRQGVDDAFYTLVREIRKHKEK
Procedure, shortened: as §1

KRas WT = molecular target: T3, KRas WT (Homo sapiens, UniProt P01116); assay: as above; details: 60-minute incubation at room temperature, 1% DMSO, pH 7.5
T3 construct: Biotinylated KRas (corresponding to amino acids 1-169, produced at Accelegan Inc.); biotin (biotinylated); purchased Accelegan Inc
T3 sequence (P01116 1-169 isoform P01116-2): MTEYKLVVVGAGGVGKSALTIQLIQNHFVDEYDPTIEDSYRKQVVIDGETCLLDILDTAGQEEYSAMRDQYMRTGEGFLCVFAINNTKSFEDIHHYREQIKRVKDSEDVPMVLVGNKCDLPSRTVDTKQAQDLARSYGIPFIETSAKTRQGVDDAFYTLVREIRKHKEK
Procedure, shortened: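 KRas aa 1-169, biotinylated; Tb-streptavidin donor; 1% DMSO final. Buffer: HEPES 50 mM (pH 7.5), MgCl2 5 mM, DTT 1 mM, Tween-20 0.005%. 60 min, RT. IC50 from 4-parameter fit of POC.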

[1] = molecular target: T4, KRas-mediated phosphorylation of ERK in MKN1 cells (Homo sapiens, UniProt P01116); assay: Inhibition of KRas-mediated phosphorylation of ERK (HTRF), MKN1 cells; type: cell-based; details: MKN1 cells (KRas WT); HTRF pERK; 3 h incubation
T4 construct: pERK HTRF read-out
T4 sequence (P01116 1-188 isoform P01116-2): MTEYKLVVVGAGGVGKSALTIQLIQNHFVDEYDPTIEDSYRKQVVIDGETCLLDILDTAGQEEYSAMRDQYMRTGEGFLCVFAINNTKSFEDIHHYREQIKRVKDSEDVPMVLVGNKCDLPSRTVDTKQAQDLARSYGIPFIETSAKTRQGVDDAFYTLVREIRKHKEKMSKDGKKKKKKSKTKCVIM
Experimental: Inhibition of KRas Phosphorylation of ERK (HTRF) by Exemplary Compounds of Formula (Ia) or (Ib)
Cisbio HTRF Advanced pERK Assay Catalog #64AERPEH • Cells: MKN1, PSN1 • Procedure: • 1. Day 1: Seed 6,000 cells/well −25 μl/well in 384-well white solid bottom plate; RPM1_10% FBS. Incubate overnight at 37 °C/5% CO2. • 2.

[2] = molecular target: T5, KRas-mediated phosphorylation of ERK in A549 cells (Homo sapiens, UniProt P01116, G12S); assay: Inhibition of KRas-mediated phosphorylation of ERK (HTRF), A549 cells; type: cell-based; details: HTRF pERK, 3 h incubation
T5 construct: pERK HTRF read-out
T5 sequence (P01116 1-188 isoform P01116-2 G12S): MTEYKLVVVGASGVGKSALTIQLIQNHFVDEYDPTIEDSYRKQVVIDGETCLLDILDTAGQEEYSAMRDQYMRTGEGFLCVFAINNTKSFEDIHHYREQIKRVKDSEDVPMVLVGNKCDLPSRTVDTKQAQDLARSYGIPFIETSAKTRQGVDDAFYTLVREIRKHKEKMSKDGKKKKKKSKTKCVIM

[3] = molecular target: T6, KRas-mediated phosphorylation of ERK in H358 cells (Homo sapiens, UniProt P01116, G12C); assay: Inhibition of KRas-mediated phosphorylation of ERK (HTRF), H358 cells; type: cell-based; details: HTRF pERK, 3 h incubation
T6 construct: pERK HTRF read-out
T6 sequence (P01116 1-188 isoform P01116-2 G12C): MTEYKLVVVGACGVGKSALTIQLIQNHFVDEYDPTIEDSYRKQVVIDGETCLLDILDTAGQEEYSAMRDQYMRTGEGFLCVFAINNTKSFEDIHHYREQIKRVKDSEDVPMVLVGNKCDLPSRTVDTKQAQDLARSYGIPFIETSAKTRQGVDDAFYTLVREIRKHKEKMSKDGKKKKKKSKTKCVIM

T1 sequence (P01116 1-169 isoform P01116-2 G12C): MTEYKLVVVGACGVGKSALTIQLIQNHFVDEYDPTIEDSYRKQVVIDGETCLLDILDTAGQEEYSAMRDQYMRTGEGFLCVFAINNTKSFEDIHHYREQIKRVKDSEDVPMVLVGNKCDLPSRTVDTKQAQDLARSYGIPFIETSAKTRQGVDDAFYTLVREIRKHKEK

SMILES | IC50 (KRas G12C) [nM] | IC50 (KRas G12S) [nM] | IC50 (KRas WT) [nM] | IC50 [1] [nM] | IC50 [2] [nM] | IC50 [3] [nM]
CCc1c(F)ccc2cc(O)cc(-c3ncc4c(N5CCC(C(=O)n6nc(C)c(C)c6C)CC5)nc(OC[C@@]56CCCN5C[C@H](F)C6)nc4c3F)c12 [Example 73, (1-(7-(8-ethyl-7-fluoro-3-hydroxynaphthalen-1-yl)-8-fluoro-2-(((2R,7aS)-2-fluorotetrahydro-1H-pyrrolizin-7a(5H)-yl)methoxy)pyrido[4,3-d]pyrimidin-4-yl)piperidin-4-yl)(3,4,5-trimethyl-1H-pyrazol-1-yl)methanone] | 888 | 2960 | 1080 | 5570 | 8480 | 4500
CCc1c(F)ccc2cc(O)cc(-c3ncc4c(N5CC[C@H]6[C@@H](C5)[C@H]6C(=O)N(C)C(C)=O)nc(OC[C@@]56CCCN5C[C@H](F)C6)nc4c3F)c12 [Example 278, (1R,6S)-N-acetyl-3-(7-(8-ethyl-7-fluoro-3-hydroxynaphthalen-1-yl)-8-fluoro-2-(((2R,7aS)-2-fluorotetrahydro-1H-pyrrolizin-7a(5H)-yl)methoxy)pyrido[4,3-d]pyrimidin-4-yl)-N-methyl-3-azabicyclo[4.1.0]heptane-7-carboxamide] | 58 | 48 | 41 | 217 | 292 | 1180
Cc1ccn(C(=O)C2CC3CN(c4nc(OC[C@@]56CCCN5C[C@H](F)C6)nc5c(F)c(-c6ccc(F)c7sc(N)c(C#N)c67)c(Cl)cc45)CC32)n1 (stereo partly drawn) [Example 178, 2-amino-4-(6-chloro-8-fluoro-2-(((2R,7aS)-2-fluorotetrahydro-1H-pyrrolizin-7a(5H)-yl)methoxy)-4-(6-(3-methyl-1H-pyrazole-1-carbonyl)-3-azabicyclo[3.2.0]heptan-3-yl)quinazolin-7-yl)-7-fluorobenzo[b]thiophene-3-carbonitrile] | 13 | 15 | 44 | 356 | 108 | 226
CCc1c(F)ccc2cc(O)cc(-c3ncc4c(N5CCCCC(C(=O)n6ccc(C)n6)CC5)nc(OC[C@@]56CCCN5C/C(=C\F)C6)nc4c3F)c12 (stereo partly drawn) [Example 124, (1-(7-(8-ethyl-7-fluoro-3-hydroxynaphthalen-1-yl)-8-fluoro-2-(((S,Z)-2-(fluoromethylene)tetrahydro-1H-pyrrolizin-7a(5H)-yl)methoxy)pyrido[4,3-d]pyrimidin-4-yl)azocan-4-yl)(3-methyl-1H-pyrazol-1-yl)methanone] | 4 | 3 | 103 | 93 | 7 | 25
CN(C(=O)C1CCN(c2nc(OC[C@@]34CCCN3C[C@H](F)C4)nc3c(F)c(-c4ccc(F)c5sc(N)c(C#N)c45)c(Cl)cc23)CC1)c1ccncn1 [Example 290, 1-(7-(2-amino-3-cyano-7-fluorobenzo[b]thiophen-4-yl)-6-chloro-8-fluoro-2-(((2R,7aS)-2-fluorotetrahydro-1H-pyrrolizin-7a(5H)-yl)methoxy)quinazolin-4-yl)-N-methyl-N-(pyrimidin-4-yl)piperidine-4-carboxamide] | 9 | 13 | 10 | 18 | 142 | 29
CN(CCCC(=O)Nc1ccccn1)c1nc(OC[C@@]23CCCN2C[C@H](F)C3)nc2c(F)c(-c3ccc(F)c4sc(N)c(C#N)c34)c(Cl)cc12 [Example 214, 4-((7-(2-amino-3-cyano-7-fluorobenzo[b]thiophen-4-yl)-6-chloro-8-fluoro-2-(((2R,7aS)-2-fluorotetrahydro-1H-pyrrolizin-7a(5H)-yl)methoxy)quinazolin-4-yl)(methyl)amino)-N-(pyridin-2-yl)butanamide] | 8 | 13 | 14 | 120 | 661 | 93
Cc1ccn(C(=O)C2CCCN(c3nc(OC[C@@]45CCCN4C[C@H](F)C5)nc4c(F)c(-c5c(I)ccc(N)c5C#N)c(Cl)cc34)CC2)n1 (stereo partly drawn) [Example 263, 6-amino-2-(6-chloro-8-fluoro-2-(((2R,7aS)-2-fluorotetrahydro-1H-pyrrolizin-7a(5H)-yl)methoxy)-4-(4-(3-methyl-1H-pyrazole-1-carbonyl)azepan-1-yl)quinazolin-7-yl)-3-iodobenzonitrile] | 1720 | 490 | 2130 | 8920 | 495 | > 10000
CCc1c(F)ccc2cc(O)cc(-c3ncc4c(N(C)CCCS(=O)(=O)n5cccn5)nc(OC[C@@]56CCCN5C[C@H](F)C6)nc4c3F)c12 [Example 230, 4-(4-((3-((1H-pyrazol-1-yl)sulfonyl)propyl)(methyl)amino)-8-fluoro-2-(((2R,7aS)-2-fluorotetrahydro-1H-pyrrolizin-7a(5H)-yl)methoxy)pyrido[4,3-d]pyrimidin-7-yl)-5-ethyl-6-fluoronaphthalen-2-ol] | 134 | 123 | 91 | 394 | 4350 | 1500
CCc1c(F)ccc2cc(O)cc(-c3ncc4c(N(C)CCN(C)C(=O)n5ccnn5)nc(OC[C@@]56CCCN5C[C@H](F)C6)nc4c3F)c12 (single isomer, unassigned) [Example 208] | 4 | 74 | 171 | 854 | 3980 | 4

Second part, the compound after the results:

IC50 (KRas G12C) [nM] | IC50 (KRas G12S) [nM] | IC50 (KRas WT) [nM] | IC50 [1] [nM] | IC50 [2] [nM] | IC50 [3] [nM] | SMILES
34 | 28 | 23 | 179 | 3410 | 499 | CCc1c(F)ccc2cc(O)cc(-c3ncc4c(N5CCN(C(=O)n6ccc(C)n6)C(C)C5)nc(OC[C@@]56CCCN5C[C@H](F)C6)nc4c3F)c12 (stereo partly drawn) [Example 82, (4-(7-(8-ethyl-7-fluoro-3-hydroxynaphthalen-1-yl)-8-fluoro-2-(((2R,7aS)-2-fluorotetrahydro-1H-pyrrolizin-7a(5H)-yl)methoxy)pyrido[4,3-d]pyrimidin-4-yl)-2-methylpiperazin-1-yl)(3-methyl-1H-pyrazol-1-yl)methanone]
7 | 2 | 77 | 305 | 16 | 88 | CCc1c(F)ccc2cc(O)cc(-c3ncc4c(N5CCCCC(C(=O)n6ccc(C)n6)CC5)nc(OC[C@@]56CCCN5C[C@H](F)C6)nc4c3F)c12 (stereo partly drawn) [Example 53, (1-(7-(8-ethyl-7-fluoro-3-hydroxynaphthalen-1-yl)-8-fluoro-2-(((2R,7aS)-2-fluorotetrahydro-1H-pyrrolizin-7a(5H)-yl)methoxy)pyrido[4,3-d]pyrimidin-4-yl)azocan-4-yl)(3-methyl-1H-pyrazol-1-yl)methanone]
16 | 16 | 30 | 875 | 243 | 382 | CCc1c(F)ccc2cc(O)cc(-c3ncc4c(N(C)CCC(=O)n5ccc(C)n5)nc(OC[C@@]56CCCN5C[C@H](F)C6)nc4c3F)c12 [Example 121, 3-((7-(8-ethyl-7-fluoro-3-hydroxynaphthalen-1-yl)-8-fluoro-2-(((2R,7aS)-2-fluorotetrahydro-1H-pyrrolizin-7a(5H)-yl)methoxy)pyrido[4,3-d]pyrimidin-4-yl)(methyl)amino)-1-(3-methyl-1H-pyrazol-1-yl) propan-1-one]
79 | 124 | 6 | 31 | 4810 | 1120 | CCc1c(F)ccc2cc(O)cc(-c3ncc4c(N5CCCN(C(=O)n6ccc(C)n6)CC5)nc(OC[C@@]56CCCN5C[C@H](F)C6)nc4c3F)c12 [Example 69, (4-(7-(8-ethyl-7-fluoro-3-hydroxynaphthalen-1-yl)-8-fluoro-2-(((2R,7aS)-2-fluorotetrahydro-1H-pyrrolizin-7a(5H)-yl)methoxy)pyrido[4,3-d]pyrimidin-4-yl)-1,4-diazepan-1-yl)(3-methyl-1H-pyrazol-1-yl)methanone]
93 | 11 | 1190 | 7430 | 57 | 1540 | CCc1c(F)ccc2cc(O)cc(-c3ncc4c(N5C[C@H]6C[C@@H](C(=O)n7ccc(C)n7)C[C@H]6C5)nc(OC[C@@]56CCCN5C[C@H](F)C6)nc4c3F)c12 [Example 128, ((3aR,5S,6aS)-2-(7-(8-ethyl-7-fluoro-3-hydroxynaphthalen-1-yl)-8-fluoro-2-(((2R,7aS)-2-fluorotetrahydro-1H-pyrrolizin-7a(5H)-yl)methoxy)pyrido[4,3-d]pyrimidin-4-yl)octahydrocyclopenta[c]pyrrol-5-yl)(3-methyl-1H-pyrazol-1-yl)methanone]

From patent US20260356856A1, “KRAS G12S AND G12C INHIBITORS” (MIRATI THERAPEUTICS, INC., priority 2023, published 2026)
